Laboratory results reported in patent US10544143B2, “4-azaindole compounds” (BRISTOL-MYERS SQUIBB COMPANY, priority 2017, dated 2020).

What was measured:
human TLR8 = human TLR8 (Homo sapiens (Human), UniProt Q9NR97); experiment: TLR8 inhibition reporter assay (HEK-Blue SEAP); conditions: read-out: TLR8 IC50; HEK-Blue cells overexpressing human TLR8, SEAP reporter, R848 15.9 μM;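 further: SEAP driven by IFN-β minimal promoter carrying NF-κB and AP-1 sites, compounds dosed 0.05 nM to 50 µM for 22 h, inhibition scaled between agonist-plus-DMSO and reference-inhibitor wells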
human TLR9 = human TLR9 (Homo sapiens (Human), UniProt Q9NR96); experiment: TLR9 inhibition reporter assay (HEK-Blue SEAP); conditions: read-out: TLR9 IC50; HEK-Blue cells overexpressing human TLR9, SEAP reporter, ODN2006 5 nM;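 further: SEAP driven by an IFN-β minimal promoter with NF-κB and AP-1 sites, read after 22 h, compounds dosed 0.05 nM–50 µM, inhibition scaled between agonist plus DMSO and reference-inhibitor wells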
MRL/lpr mice = experiment: MRL/lpr model of SLE; type: in vivo, mouse; conditions: vs vehicle; for IL-10, percent reduction in disease severity / IL-12p40, percent reduction in disease severity: plasma
Protocol: Male MRL/lpr mice of 12-14 weeks age were screened and randomized based on the titres of anti-dsDNA antibodies and urinary NGAL (Neutrophil Gelatinase Associated Lipocalin). Mice were treated orally, once daily for 8 weeks with vehicle or test compound. The effect of test compound on disease severity was assessed by measuring end points including proteinuria, urinary-NGAL, urinary TIMP1, blood urea nitrogen (BUN), anti-dsDNA Ab, anti-smRNP Ab titer, and plasma levels of IL10 and IL12p40. At the end of experiment, all mice were euthanized by CO2 asphyxiation and kidney samples were subjected for histology. To calculate the significance of test compound treated group vs. vehicle control group, one way ANOVA with Dunnett's test was performed. Percent reduction in disease severity was calculated for each parameter, for test compound treated group vs vehicle control group.

TLR7 = TLR7 (Mus musculus (Mouse), UniProt P58681); experiment: In vivo mouse TLR7 PD model (gardiquimod challenge, plasma IL-6 and IFN-alpha); conditions: C57BL/6 mice, plasma 90 min after gardiquimod i.p., vs vehicle
Protocol: In Vivo Mouse TLR7 PD Model:
Adult male C57BL/6 mice were used for the experiments. Mice (7 to 10 per group) were randomized into different treatment groups based on body weight. Mice from the respective treatment groups were administered orally with vehicle or test compound. Thirty min after the oral administration of vehicle or test compound, mice were challenged with intraperitoneal injection of gardiquimod for TLR7 PD model. Ninety minutes after gardiquimod injection, mice were bled under isoflurane anaesthesia and plasma IL-6 and IFN-alpha levels were estimated by using commercially available ELISA kit (BD Biosciences, PBL Life Sciences). At the end of experiment, mean cytokine data was plotted and one way ANOVA with Dunnett's test was performed to calculate the significance of test compound treated group vs. vehicle control group. Percent inhibition of cytokine induction was calculated for test compound treated group vs vehicle control group.

[1] = 0.1 mg/kg oral once daily 8 weeks
[2] = 0.3 mg/kg oral once daily 8 weeks
[3] = 1 mg/kg oral once daily 8 weeks
[4] = 3 mg/kg oral once daily 8 weeks
[5] = 10 mg/kg oral once daily 8 weeks

Sequence of TLR7 (P58681 27-1050): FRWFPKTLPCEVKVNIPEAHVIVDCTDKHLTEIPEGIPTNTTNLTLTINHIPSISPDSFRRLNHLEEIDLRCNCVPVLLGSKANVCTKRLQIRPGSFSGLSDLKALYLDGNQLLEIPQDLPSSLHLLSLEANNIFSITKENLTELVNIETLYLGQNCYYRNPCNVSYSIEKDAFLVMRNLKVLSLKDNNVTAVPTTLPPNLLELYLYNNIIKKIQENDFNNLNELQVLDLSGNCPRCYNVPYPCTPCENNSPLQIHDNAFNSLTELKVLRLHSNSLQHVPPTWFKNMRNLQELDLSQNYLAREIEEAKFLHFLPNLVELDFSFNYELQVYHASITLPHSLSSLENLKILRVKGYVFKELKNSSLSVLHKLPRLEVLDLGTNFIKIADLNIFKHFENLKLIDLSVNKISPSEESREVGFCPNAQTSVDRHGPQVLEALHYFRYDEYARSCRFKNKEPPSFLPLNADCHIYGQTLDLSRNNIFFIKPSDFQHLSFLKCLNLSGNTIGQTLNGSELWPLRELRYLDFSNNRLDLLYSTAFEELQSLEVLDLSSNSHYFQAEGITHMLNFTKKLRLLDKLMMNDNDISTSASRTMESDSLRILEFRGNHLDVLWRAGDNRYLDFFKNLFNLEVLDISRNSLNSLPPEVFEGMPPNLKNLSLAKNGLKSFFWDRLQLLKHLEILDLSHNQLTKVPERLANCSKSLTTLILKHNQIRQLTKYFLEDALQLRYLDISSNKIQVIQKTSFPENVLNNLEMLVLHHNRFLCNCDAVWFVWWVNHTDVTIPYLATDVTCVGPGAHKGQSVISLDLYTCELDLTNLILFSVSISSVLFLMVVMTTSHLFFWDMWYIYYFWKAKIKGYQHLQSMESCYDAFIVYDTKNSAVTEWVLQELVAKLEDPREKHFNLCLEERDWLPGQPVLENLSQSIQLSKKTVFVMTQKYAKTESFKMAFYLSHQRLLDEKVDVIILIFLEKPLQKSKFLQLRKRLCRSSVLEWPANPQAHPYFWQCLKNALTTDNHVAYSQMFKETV
Sequence of human TLR9 (Q9NR96 26-1032): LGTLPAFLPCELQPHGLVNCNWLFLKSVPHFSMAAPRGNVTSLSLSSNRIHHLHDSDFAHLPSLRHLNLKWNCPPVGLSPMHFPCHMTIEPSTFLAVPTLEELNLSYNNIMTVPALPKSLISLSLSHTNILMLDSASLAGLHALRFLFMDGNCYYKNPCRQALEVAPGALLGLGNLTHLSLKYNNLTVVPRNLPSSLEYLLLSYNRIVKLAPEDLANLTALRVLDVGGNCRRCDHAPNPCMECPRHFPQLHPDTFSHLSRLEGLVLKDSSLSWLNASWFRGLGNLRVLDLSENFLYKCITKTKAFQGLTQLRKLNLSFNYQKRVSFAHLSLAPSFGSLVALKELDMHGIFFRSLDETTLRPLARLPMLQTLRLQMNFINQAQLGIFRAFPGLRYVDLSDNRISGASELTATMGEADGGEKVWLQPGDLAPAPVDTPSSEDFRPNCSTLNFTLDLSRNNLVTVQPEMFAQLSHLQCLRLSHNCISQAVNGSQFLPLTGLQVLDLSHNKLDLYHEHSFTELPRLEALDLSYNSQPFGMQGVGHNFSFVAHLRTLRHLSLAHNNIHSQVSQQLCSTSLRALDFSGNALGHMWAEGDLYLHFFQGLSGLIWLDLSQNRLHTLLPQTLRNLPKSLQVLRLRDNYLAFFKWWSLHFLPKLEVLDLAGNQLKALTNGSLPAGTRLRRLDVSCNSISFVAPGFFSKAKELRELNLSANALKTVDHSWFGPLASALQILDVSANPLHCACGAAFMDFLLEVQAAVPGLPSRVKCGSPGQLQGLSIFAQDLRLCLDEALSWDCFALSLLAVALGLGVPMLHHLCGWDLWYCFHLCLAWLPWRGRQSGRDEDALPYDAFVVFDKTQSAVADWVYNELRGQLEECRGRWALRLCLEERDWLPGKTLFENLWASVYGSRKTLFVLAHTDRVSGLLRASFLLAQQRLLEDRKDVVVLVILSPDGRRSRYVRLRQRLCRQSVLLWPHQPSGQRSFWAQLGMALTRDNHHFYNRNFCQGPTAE
Sequence of human TLR8 (Q9NR97 27-1041): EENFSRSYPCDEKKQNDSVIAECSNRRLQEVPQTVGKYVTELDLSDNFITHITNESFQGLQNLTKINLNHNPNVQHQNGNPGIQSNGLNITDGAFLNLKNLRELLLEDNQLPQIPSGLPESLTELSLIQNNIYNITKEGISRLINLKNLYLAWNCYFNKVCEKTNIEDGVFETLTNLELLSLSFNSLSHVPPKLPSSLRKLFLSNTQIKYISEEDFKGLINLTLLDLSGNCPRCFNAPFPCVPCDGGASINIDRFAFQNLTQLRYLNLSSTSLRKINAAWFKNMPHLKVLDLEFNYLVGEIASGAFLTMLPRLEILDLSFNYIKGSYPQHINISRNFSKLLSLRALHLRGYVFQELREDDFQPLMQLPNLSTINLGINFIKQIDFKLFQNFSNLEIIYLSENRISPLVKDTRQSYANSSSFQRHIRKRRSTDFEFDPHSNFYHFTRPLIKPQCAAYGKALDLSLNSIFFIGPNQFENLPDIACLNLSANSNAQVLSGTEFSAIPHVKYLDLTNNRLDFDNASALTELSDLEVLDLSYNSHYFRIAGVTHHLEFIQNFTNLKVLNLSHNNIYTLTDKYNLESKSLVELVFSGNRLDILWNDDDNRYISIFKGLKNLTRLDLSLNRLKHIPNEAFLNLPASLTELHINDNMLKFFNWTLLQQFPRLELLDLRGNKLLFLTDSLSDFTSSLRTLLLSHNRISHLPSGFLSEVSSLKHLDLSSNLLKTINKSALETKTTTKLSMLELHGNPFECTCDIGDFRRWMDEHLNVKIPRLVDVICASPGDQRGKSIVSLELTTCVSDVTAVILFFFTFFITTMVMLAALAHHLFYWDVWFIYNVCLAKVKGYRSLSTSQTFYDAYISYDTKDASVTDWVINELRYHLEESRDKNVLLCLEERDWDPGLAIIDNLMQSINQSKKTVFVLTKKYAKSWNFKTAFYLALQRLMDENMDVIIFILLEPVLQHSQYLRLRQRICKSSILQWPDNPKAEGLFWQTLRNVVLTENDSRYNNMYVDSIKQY

Structure (SMILES): Cc1c(-c2[nH]c3ccc(C4CCC(N5CC6(C5)CS(=O)(=O)C6)CC4)nc3c2C(C)C)cn2ncnc2c1C (centres unmarked) [Example 438, 6-((1r,4r)-(4-(2-(7,8-dimethyl-[1,2,4]triazolo[1,5-a]pyridin-6-yl)-3-isopropyl-1H-pyrrolo[3,2-b]pyridin-5-yl)cyclohexyl)-2-thia-6-azaspiro[3.3]heptane 2,2-dioxide]
- IC50 (human TLR8): 0.39 nM
- IC50 (human TLR9): 1460 nM
- IL-10, percent reduction in disease severity (MRL/lpr mice; [1]): 0%
- IL-12p40, percent reduction in disease severity (MRL/lpr mice; [1]): 16%
- Anti-SmRNP Ab titer, percent reduction in disease severity (MRL/lpr mice; [1]): 23%
- Anti-dsDNA Ab titer, percent reduction in disease severity (MRL/lpr mice; [1]): 0%
- Proteinuria, percent reduction in disease severity (MRL/lpr mice; [1]): 31%
- Urinary NGAL, percent reduction in disease severity (MRL/lpr mice; [1]): 34%
- Urinary TIMP1, percent reduction in disease severity (MRL/lpr mice; [1]): 0%
- IL-10, percent reduction in disease severity (MRL/lpr mice; [2]): 18%
- IL-12p40, percent reduction in disease severity (MRL/lpr mice; [2]): 33%
- Anti-SmRNP Ab titer, percent reduction in disease severity (MRL/lpr mice; [2]): 44%
- Anti-dsDNA Ab titer, percent reduction in disease severity (MRL/lpr mice; [2]): 28%
- Proteinuria, percent reduction in disease severity (MRL/lpr mice; [2]): 80%
- Urinary NGAL, percent reduction in disease severity (MRL/lpr mice; [2]): 58%
- Urinary TIMP1, percent reduction in disease severity (MRL/lpr mice; [2]): 42%
- IL-10, percent reduction in disease severity (MRL/lpr mice; [3]): 19%
- IL-12p40, percent reduction in disease severity (MRL/lpr mice; [3]): 26%
- Anti-SmRNP Ab titer, percent reduction in disease severity (MRL/lpr mice; [3]): 49%
- Anti-dsDNA Ab titer, percent reduction in disease severity (MRL/lpr mice; [3]): 39%
- Proteinuria, percent reduction in disease severity (MRL/lpr mice; [3]): 73%
- Urinary NGAL, percent reduction in disease severity (MRL/lpr mice; [3]): 63%
- Urinary TIMP1, percent reduction in disease severity (MRL/lpr mice; [3]): 54%
- IL-10, percent reduction in disease severity (MRL/lpr mice; [4]): 21%
- IL-12p40, percent reduction in disease severity (MRL/lpr mice; [4]): 28%
- Anti-SmRNP Ab titer, percent reduction in disease severity (MRL/lpr mice; [4]): 43%
- Anti-dsDNA Ab titer, percent reduction in disease severity (MRL/lpr mice; [4]): 44%
- Proteinuria, percent reduction in disease severity (MRL/lpr mice; [4]): 82%
- Urinary NGAL, percent reduction in disease severity (MRL/lpr mice; [4]): 67%
- Urinary TIMP1, percent reduction in disease severity (MRL/lpr mice; [4]): 56%
- IL-10, percent reduction in disease severity (MRL/lpr mice; [5]): 22%
- IL-12p40, percent reduction in disease severity (MRL/lpr mice; [5]): 41%
- Anti-SmRNP Ab titer, percent reduction in disease severity (MRL/lpr mice; [5]): 51%
- Anti-dsDNA Ab titer, percent reduction in disease severity (MRL/lpr mice; [5]): 37%
- Proteinuria, percent reduction in disease severity (MRL/lpr mice; [5]): 84%
- Urinary NGAL, percent reduction in disease severity (MRL/lpr mice; [5]): 67%
- Urinary TIMP1, percent reduction in disease severity (MRL/lpr mice; [5]): 79%
- % inhibition of IFN-alpha (TLR7; 0.003 mg/kg oral): 36%
- % inhibition of IL6 (TLR7; 0.003 mg/kg oral): 25%
- % inhibition of IFN-alpha (TLR7; 0.006 mg/kg oral): 57%
- % inhibition of IL6 (TLR7; 0.006 mg/kg oral): 41%
- % inhibition of IFN-alpha (TLR7; 0.03 mg/kg oral): 67%
- % inhibition of IL6 (TLR7; 0.03 mg/kg oral): 56%
- % inhibition of IFN-alpha (TLR7; 0.15 mg/kg oral): 96%
- % inhibition of IL6 (TLR7; 0.15 mg/kg oral): 78%
- % inhibition of IFN-alpha (TLR7; 0.3 mg/kg oral): 98%
- % inhibition of IL6 (TLR7; 0.3 mg/kg oral): 82%
